Laboratory results published in US12576050B2, “Dosage regime” (priority 2018, dated 2026).

How the values were obtained:
[1] = tested on: people with CF experiencing an acute exacerbation; assay: CARE-CF-1 trial: PROM CFRSD-CRISS score; type: in vivo; settings: for CFRSD-CRISS score, Day 7 LSMD (cysteamine − placebo) / CFRSD-CRISS score, Day 14 LSMD (cysteamine − placebo): MMRM, ITT
[2] = tested on: P. aeruginosa isolate from CF sputum; assay: Kirby Bauer antibiotic disc sensitivity on agar containing cysteamine; type: cell-based
Description: Legend: […], I, R=sensitive, intermediate or resistant by interpretive criteria for antibiotic disc sensitivity testing method against P. aeruginosa. No criteria for sulphonamides against P. aeruginosa, however Bactrim/co-trimoxazole sometimes used in CF therefore included here with interpretive criteria for Stenotrophomonas. *=p<0.05 two-way ANOVA Sidak's multiple comparison test.
(§1) As a result, the patient was taken off regimen of ceftolozane+tazobactam, Colomycin and Pulmozyme and put onto 14-day course of cysteamine 450 mg BID (bi-daily) with Tobramycin and Colomycin. Patient was discharged from hospital 3-days later.

[3] = tested on: people with CF experiencing an acute exacerbation; assay: CARE-CF-1 trial: PROM CFQ-R score; type: in vivo; settings: 450 doses, day 14; greatest for 450 BID
[4] = tested on: people with CF experiencing an acute exacerbation; settings: adjunct to treatment of exacerbations, 14 days
CF patient = assay: Single patient treated with cysteamine 450 mg bi-daily plus antibiotics; type: in vivo; settings: cysteamine 450 mg BID with Tobramycin and Colomycin, one patient
Description: as §1, with “Patient trialled with combination treatment of 450 mg bi-daily in combination with antibiotics. […] As” for “As”

blood leukocytes = assay: CARE-CF-1 trial: blood leukocyte count (WCC); type: in vivo, people with CF
[5] = tested on: Gram −ve organisms in sputum; assay: CARE-CF-1 trial: sputum bacterial load; type: in vivo, people with CF; settings: for Sputum Gram −ve organisms, Day 21 change from baseline, mean: 14 day course; for Sputum Gram −ve organisms, Day 14 LSMD (cysteamine − placebo): MMRM, ITT; for Sputum Gram −ve organisms, D 14 mean: with standard of care
[6] = tested on: P. aeruginosa isolated from sputum from a CF patient; assay: Alginate production by sputum isolates (Alcian Blue assay); type: cell-based
Description: Isolate A produced 19.93 μg/ml (+/−1.9 SD) alginate and had mucoid phenotype. Isolate B produced 4.47 μg/ml (+/−2.39 SD) with dry colonies.
Results provided in FIG. 5 were derived from a study that conforms to the general quantitative assay described in J. Phycol. 13, 345-348 (1977) “Alcian Blue: A Quantitative Aqueous Assay for Algal Acid and Sulfated Polysaccharides”; J Ramus.

SMILES: NCCS [Cysteamine, cysteamine]
- CFRSD-CRISS score, Day 7 change from baseline, mean ([1]; 150 mg TID): −11.9
- CFRSD-CRISS score, Day 7 LSMD (cysteamine − placebo) ([1]; 150 mg TID, p 0.1991): 4.25
- CFRSD-CRISS score, Day 14 LSMD (cysteamine − placebo) ([1]; 150 mg TID, p 0.9098): 0.57
- CFRSD-CRISS score, D 14 mean ([1]; 150 mg tid): 32.4
- CFRSD-CRISS score, Day 14 change from baseline, mean ([1]; 150 mg tid): −15.5
- CFRSD-CRISS score, D 14 Δ −placebo mean ([1]; 150 mg tid, p 0.87): 0.8
- CFRSD-CRISS score, Day 7 change from baseline, mean ([1]; 300 mg TID): −10.5
- CFRSD-CRISS score, Day 7 LSMD (cysteamine − placebo) ([1]; 300 mg TID, p 0.0474): 6.48
- CFRSD-CRISS score, Day 14 LSMD (cysteamine − placebo) ([1]; 300 mg TID, p 0.6439): 2.32
- CFRSD-CRISS score, D 14 mean ([1]; 300 mg tid): 34.2
- CFRSD-CRISS score, Day 14 change from baseline, mean ([1]; 300 mg tid): −14.8
- CFRSD-CRISS score, D 14 Δ −placebo mean ([1]; 300 mg tid, p 0.70): 1.9
- CFRSD-CRISS score, Day 7 change from baseline, mean ([1]; 450 mg BID): −19.1
- CFRSD-CRISS score, Day 14 LSMD (cysteamine − placebo) ([1]; 450 mg BID, p 0.0496): −9.85
- CFRSD-CRISS score, Day 7 LSMD (cysteamine − placebo) ([1]; 450 mg BID, p 0.8081): −0.78
- CFRSD-CRISS score, Day 7 change from baseline, mean ([1]; 450 mg QD): −18.1
- CFRSD-CRISS score, Day 14 LSMD (cysteamine − placebo) ([1]; 450 mg QD, p 0.1814): −7.36
- CFRSD-CRISS score, Day 7 LSMD (cysteamine − placebo) ([1]; 450 mg QD, p 0.7569): −1.10
- CFRSD-CRISS score, Day 14 LSMD (cysteamine QD/BID − TID) ([1]; 450 mg TDD: 450 mg QD − 150 mg TID, p 0.1725): −7.94
- CFRSD-CRISS score, Day 7 change from baseline, mean ([1]; 450 mg TID): −17.8
- CFRSD-CRISS score, Day 14 LSMD (cysteamine − placebo) ([1]; 450 mg TID, p 0.2097): −6.27
- CFRSD-CRISS score, Day 7 LSMD (cysteamine − placebo) ([1]; 450 mg TID, p 0.7324): 1.11
- Improvements in CFRSD-CRISS domains ([1]; 450 mg bi-daily compared with the other doses (FIG. 6)): best improvements
- CFRSD-CRISS score, D 14 mean ([1]; 450 mg bid): 25.4
- CFRSD-CRISS score, Day 14 change from baseline, mean ([1]; 450 mg bid): −28.1
- CFRSD-CRISS score, D 14 Δ −placebo mean ([1]; 450 mg bid, p 0.035): −10.6
- CFRSD-CRISS score, D 14 mean ([1]; 450 mg qd): 26.1
- CFRSD-CRISS score, Day 14 change from baseline, mean ([1]; 450 mg qd): −24.3
- CFRSD-CRISS score, D 14 Δ −placebo mean ([1]; 450 mg qd, p 0.090): −9.0
- CFRSD-CRISS score, D 14 mean ([1]; 450 mg tid): 31.6
- CFRSD-CRISS score, Day 14 change from baseline, mean ([1]; 450 mg tid): −23.9
- CFRSD-CRISS score, D 14 Δ −placebo mean ([1]; 450 mg tid, p 0.34): −4.8
- CFRSD-CRISS score, Day 14 LSMD (cysteamine QD/BID − TID) ([1]; 900 mg TDD: 450 mg BID − 300 mg TID, p 0.0222): −12.17
- CRISS score at day 14 compared with standard of care plus placebo ([1]; 450 BID dose): significant improvement over and above placebo
- Potentiation of other antibiotics (CRISS, post-hoc) ([1]; 450 BID versus 900 mg as 3 times 300 mg (FIG. 9)): potentiates other antibiotics more than the 300 mg three times a day dosage regime
- CRISS versus placebo group across all concomitant antibiotics examined ([1]; 450 dose regimen, including 450 BID, post-hoc): non-significant improvements
- CRISS versus placebo, patients not receiving azithromycin ([1]; across all cysteamine treatment regimens, post-hoc): significantly better than placebo
- CRISS score at day 14 compared with placebo ([1]; other 450 doses (qd, tid)): non-significant reductions
- Zone of clearance and sensitivity to sulphonamides ([2]; Müller Hinton agar containing cysteamine compared with agar alone): significant increase
- Sensitivity to various antibiotics in combination with cysteamine ([2]; in vitro, patient isolate (FIG. 8)): increased sensitivity
- CFQR PROM score [3]: non-significant improvements
- Safety and tolerability [4]: safe and reasonably well tolerated
- Time to discharge from hospital (CF patient): 3 days
- Blood Leukocyte Count, D 14 mean (blood leukocytes; 150 mg tid): 9.71e+09 L⁻¹
- Blood Leukocyte Count, D 14 Δbaseline mean (blood leukocytes; 150 mg tid): -2.64e+09 L⁻¹
- Blood Leukocyte Count, D 14 Δ −placebo mean (blood leukocytes; 150 mg tid, p 1.00): 0 L⁻¹
- Blood Leukocyte Count, D 14 mean (blood leukocytes; 300 mg tid): 1.055e+10 L⁻¹
- Blood Leukocyte Count, D 14 Δbaseline mean (blood leukocytes; 300 mg tid): -1.9e+08 L⁻¹
- Blood Leukocyte Count, D 14 Δ −placebo mean (blood leukocytes; 300 mg tid, p 0.84): -2.4e+08 L⁻¹
- Blood Leukocyte Count, D 14 mean (blood leukocytes; 450 mg bid): 7.45e+09 L⁻¹
- Blood Leukocyte Count, D 14 Δbaseline mean (blood leukocytes; 450 mg bid): -3.41e+09 L⁻¹
- Blood Leukocyte Count, D 14 Δ −placebo mean (blood leukocytes; 450 mg bid, p 0.033): -2.43e+09 L⁻¹
- Blood Leukocyte Count, D 14 mean (blood leukocytes; 450 mg qd): 8.52e+09 L⁻¹
- Blood Leukocyte Count, D 14 Δbaseline mean (blood leukocytes; 450 mg qd): -2.22e+09 L⁻¹
- Blood Leukocyte Count, D 14 Δ −placebo mean (blood leukocytes; 450 mg qd, p 0.22): -1.49e+09 L⁻¹
- Blood Leukocyte Count, D 14 mean (blood leukocytes; 450 mg tid): 9.79e+09 L⁻¹
- Blood Leukocyte Count, D 14 Δbaseline mean (blood leukocytes; 450 mg tid): -4.06e+09 L⁻¹
- Blood Leukocyte Count, D 14 Δ −placebo mean (blood leukocytes; 450 mg tid, p 0.33): -1.11e+09 L⁻¹
- Sputum Gram −ve organisms, Day 21 change from baseline, mean ([5]; 150 mg TID): −0.26 log10 CFU/ml
- Sputum Gram −ve organisms, Day 14 LSMD (cysteamine − placebo) ([5]; 150 mg TID, p 0.9753): 0.03 log10 CFU/ml
- Sputum Gram −ve organisms, Day 21 LSMD (cysteamine − placebo) ([5]; 150 mg TID, p 0.9511): 0.05 log10 CFU/ml
- Sputum Gram −ve organisms, Day 14 change from baseline, mean ([5]; 150 mg tid): −1.24 log10 CFU/ml
- Sputum Gram −ve organisms, D 14 mean ([5]; 150 mg tid for 14 days): 5.08 log10 CFU/ml
- Sputum Gram −ve organisms, D 14 Δ −placebo mean ([5]; 150 mg tid, p 0.97): 0.03 log10 CFU/ml
- Sputum Gram −ve organisms, Day 21 change from baseline, mean ([5]; 300 mg TID): −0.87 log10 CFU/ml
- Sputum Gram −ve organisms, Day 14 LSMD (cysteamine − placebo) ([5]; 300 mg TID, p 0.3683): 0.82 log10 CFU/ml
- Sputum Gram −ve organisms, Day 21 LSMD (cysteamine − placebo) ([5]; 300 mg TID, p 0.7802): −0.24 log10 CFU/ml
- Sputum Gram −ve organisms, Day 14 change from baseline, mean ([5]; 300 mg tid): −0.98 log10 CFU/ml
- Sputum Gram −ve organisms, D 14 mean ([5]; 300 mg tid for 14 days): 6.14 log10 CFU/ml
- Sputum Gram −ve organisms, D 14 Δ −placebo mean ([5]; 300 mg tid, p 0.36): 0.87 log10 CFU/ml
- Sputum Gram −ve organisms, Day 21 change from baseline, mean ([5]; 450 mg BID): −1.04 log10 CFU/ml
- Sputum Gram −ve organisms, Day 14 LSMD (cysteamine − placebo) ([5]; 450 mg BID, p 0.4165): 0.72 log10 CFU/ml
- Sputum Gram −ve organisms, Day 21 LSMD (cysteamine − placebo) ([5]; 450 mg BID, p 0.6117): −0.41 log10 CFU/ml
- Sputum Gram −ve organisms, Day 21 change from baseline, mean ([5]; 450 mg QD): −1.22 log10 CFU/ml
- Sputum Gram −ve organisms, Day 14 LSMD (cysteamine − placebo) ([5]; 450 mg QD, p 0.4445): 0.72 log10 CFU/ml
- Sputum Gram −ve organisms, Day 21 LSMD (cysteamine − placebo) ([5]; 450 mg QD, p 0.0799): −1.56 log10 CFU/ml
- Sputum Gram −ve organisms, Day 14 LSMD (cysteamine QD/BID − TID) ([5]; 450 mg TDD: 450 mg QD − 150 mg TID): 0.69 log10 CFU/ml
- Sputum Gram −ve organisms, Day 21 change from baseline, mean ([5]; 450 mg TID): 0.93 log10 CFU/ml
- Sputum Gram −ve organisms, Day 14 LSMD (cysteamine − placebo) ([5]; 450 mg TID, p 0.0602): 1.57 log10 CFU/ml
- Sputum Gram −ve organisms, Day 21 LSMD (cysteamine − placebo) ([5]; 450 mg TID, p 0.2130): 0.99 log10 CFU/ml
- Sputum Gram −ve organisms, Day 14 change from baseline, mean ([5]; 450 mg bid): −1.32 log10 CFU/ml
- Sputum Gram −ve organisms, D 14 mean ([5]; 450 mg bid for 14 days): 6.25 log10 CFU/ml
- Sputum Gram −ve organisms, D 14 Δ −placebo mean ([5]; 450 mg bid, p 0.61): 0.46 log10 CFU/ml
- Sputum Gram −ve organisms, Day 14 change from baseline, mean ([5]; 450 mg qd): 0.12 log10 CFU/ml
- Sputum Gram −ve organisms, D 14 mean ([5]; 450 mg qd for 14 days): 4.49 log10 CFU/ml
- Sputum Gram −ve organisms, D 14 Δ −placebo mean ([5]; 450 mg qd, p 0.36): 0.90 log10 CFU/ml
- Sputum Gram −ve organisms, Day 14 change from baseline, mean ([5]; 450 mg tid): 0.33 log10 CFU/ml
- Sputum Gram −ve organisms, D 14 mean ([5]; 450 mg tid for 14 days): 6.27 log10 CFU/ml
- Sputum Gram −ve organisms, D 14 Δ −placebo mean ([5]; 450 mg tid, p 0.059): 1.66 log10 CFU/ml
- Sputum Gram −ve organisms, Day 14 LSMD (cysteamine QD/BID − TID) ([5]; 900 mg TDD: 450 mg BID − 300 mg TID): −0.11 log10 CFU/ml
- Production of alginate/extracellular polysaccharide in mucoid strains ([6]; exposure to cysteamine): inhibited
- Alginate production ([6]; isolate B, day 14 of 450 mg BID cysteamine, 120 h growth in MHB at 37° C., day 0 isolate A 19.93 μg/ml, mucoid): 4.47 µg/mL
- Colony phenotype of isolate ([6]; isolate B, day 14 of 450 mg BID cysteamine, day 0 isolate mucoid): dry colonies
